Values of other authors in patent publication US20210189389A1, “METHODS OF MODULATING ANK1” (SOCIETE DES PRODUITS NESTLE S.A., priority 2017, published 2021).

System: ANK1
Conditions: effect on ANK1 expression, from Comparative Toxicogenomics Database and cited reference

Compound	Interaction Actions
CC(=O)Nc1ccc(O)cc1 [Acetaminophen]	affects expression
CCCCc1oc2ccccc2c1C(=O)c1cc(I)c(OCCN(CC)CC)c(I)c1 [Amiodarone]	affects expression
c1ccc2c(c1)cc1ccc3cccc4ccc2c1c34 [Benzo(a)pyrene]	decreases expression
NC(=O)N1c2ccccc2C=Cc2ccccc21 [Carbamazepine]	affects expression
CN(C)CCCN1c2ccccc2Sc2ccc(Cl)cc21 [Chlorpromazine]	affects expression
ClC1=C(Cl)[C@]2(Cl)[C@@H]3[C@@H]4C[C@@H]([C@H]5O[C@@H]45)[C@@H]3[C@@]1(Cl)C2(Cl)Cl [Dieldrin]	decreases expression
CCCc1cc(=O)[nH]c(=S)[nH]1 [Propylthiouracil]	decreases expression
CC/C(=C(\c1ccccc1)c1ccc(OCCN(C)C)cc1)c1ccccc1 [Tamoxifen]	affects expression
CC(=N)S [Thioacetamide]	affects expression
CC[C@@]1(O)C(=O)OCc2c1cc1n(c2=O)Cc2cc3c(CN(C)C)c(O)ccc3nc2-1 [Topotecan]	decreases expression
CCCC(CCC)C(=O)O [Valproic Acid]	affects expression
Brc1c(Br)c(Br)c(Oc2c(Br)c(Br)c(Br)c(Br)c2Br)c(Br)c1Br [decabromobiphenyl ether]	decreases expression
O=C1[O][Pt]2([NH][C@@H]3CCCC[C@H]3[NH]2)[O]C1=O [oxaliplatin]	decreases expression
Gentamicins	decreases expression
